Assays:
Assay in all cases: Test E pre-/postemergence greenhouse herbicide test
Type in all cases: in vivo
[1] = test system: nightshade (eastern black nightshade, Solanum ptycanthum); conditions: Preemergence, scale 0 to 100
Source text: (§1) Seeds of plant species selected from corn (Zea mays), soybean (Glycine max), lambsquarters (Chenopodium album), poinsettia, wild (wild poinsettia, Euphorbia heterophylla), pigweed, palmer (palmer pigweed, Amaranthus palmeri), waterhemp (common waterhemp, Amaranthus rudis), surinam grass (Brachiaria decumbens), crabgrass, large (large crabgrass Digitaria sanguinalis), crabgrass, Brazil (Brazilian crabgrass, Digitaria horizontalis), panicum, fall (fall panicum, Panicum dichotomiflorum), foxtail, giant (giant foxtail, Setaria faberii), foxtail, green (green foxtail, Setaria viridis), goosegrass (Eleusine indica), johnsongrass (Sorghum halepense), ragweed (common ragweed, Ambrosia elatior), barnyardgrass (Echinochloa crus-galli), sandbur (southern sandbur, Cenchrus echinatus), arrowleaf sida (Sida rhombifolia), ryegrass, Italian (Italian ryegrass, Lolium multiflorum), dayflower, VA (Virginia dayflower, Commelina virginica), field bindweed (Convolvulus arvensis), cocklebur (common cocklebur, Xanthium strumarium), morningglory (Ipomoea coccinea), nightshade (eastern black nightshade, Solanum ptycanthum), kochia (Kochia scoparia), nutsedge, yellow (yellow nutsedge, Cyperus esculentus), smartweed (ladysthumb smartweed, Polygonum persicaria), velvetleaf (Abutilon theophrasti), and beggarticks (hairy beggarticks, Bidens pilosa), were planted into a silt loam soil and treated preemergence with test chemicals formulated in a non-phytotoxic solvent mixture which included a surfactant.
(§2) At the same time, plants from these crop and weed species and also waterhemp_RES1, (ALS & Triazine resistant common waterhemp, Amaranthus rudis), and waterhemp_RES2, (ALS & HPPD resistant common waterhemp, Amaranthus rudis) were planted in pots containing Redi-Earth® planting medium (Scotts Company, 14111 Scottslawn Road, Marysville, Ohio 43041) comprising spaghnum peat moss, vermiculite, wetting agent and starter nutrients were treated with postemergence applications of test chemicals formulated in the same manner. Plants ranged in height from 2 to 18 cm for postemergence treatments (1- to 4-leaf stage). Treated plants and controls were maintained in a greenhouse for 14 to 21 d, after which time all species were compared to controls and visually evaluated. Plant response ratings, summarized in Table E, are based on a scale of 0 to 100 where 0 is no effect and 100 is complete control. A dash (-) response means no test result.

[2] = test system: johnsongrass (Sorghum halepense); conditions: Preemergence, scale 0 to 100
Source text: as §1, §2

[3] = test system: arrowleaf sida (Sida rhombifolia); conditions: scale 0 to 100
Source text: as §1, §2

[4] = test system: foxtail, giant (giant foxtail, Setaria faberii); conditions: Preemergence, scale 0 to 100
Source text: as §1, §2

[5] = test system: soybean (Glycine max); conditions: scale 0 to 100
Source text: as §1, §2

[6] = test system: velvetleaf (Abutilon theophrasti); conditions: Preemergence, scale 0 to 100
Source text: as §1, §2

[7] = test system: kochia (Kochia scoparia); conditions: Preemergence, scale 0 to 100
Source text: as §1, §2

[8] = test system: crabgrass, Brazil (Brazilian crabgrass, Digitaria horizontalis); conditions: scale 0 to 100
Source text: as §1, §2

[9] = test system: sandbur (southern sandbur, Cenchrus echinatus); conditions: scale 0 to 100
Source text: as §1, §2

[10] = test system: pigweed, palmer (palmer pigweed, Amaranthus palmeri); conditions: scale 0 to 100
Source text: as §1, §2

[11] = test system: morningglory (Ipomoea coccinea); conditions: Preemergence, scale 0 to 100
Source text: as §1, §2

[12] = test system: dayflower, VA (Virginia dayflower, Commelina virginica); conditions: scale 0 to 100
Source text: as §1, §2

[13] = test system: ryegrass, Italian (Italian ryegrass, Lolium multiflorum); conditions: scale 0 to 100
Source text: as §1, §2

[14] = test system: beggarticks (hairy beggarticks, Bidens pilosa); conditions: scale 0 to 100
Source text: as §1, §2

[15] = test system: panicum, fall (fall panicum, Panicum dichotomiflorum); conditions: scale 0 to 100
Source text: as §1, §2

SMILES: COc1cc(=O)n(-c2ccc(C(F)(F)F)cc2)nc1Cc1ccnc(C(F)(F)F)c1 [Compound 16, 5-methoxy-2-[4-(trifluoromethyl)phenyl]-6-[[2-(trifluoromethyl)-4-pyridinyl]methyl]-3(2H)-pyridazinone]
- Plant response rating: Nightshade ([1]; 62 g ai/ha): 80
- Plant response rating: Nightshade ([1]; 125 g ai/ha): 100
- Plant response rating: Nightshade ([1]; 250 g ai/ha): 100
- Plant response rating: Johnsongrass ([2]; 62 g ai/ha): 35
- Plant response rating: Johnsongrass ([2]; 125 g ai/ha): 60
- Plant response rating: Johnsongrass ([2]; 250 g ai/ha): 60
- Plant response rating: Arrowleaf Sida ([3]; Postemergence, 62 g ai/ha): 60
- Plant response rating: Arrowleaf Sida ([3]; Postemergence, 250 g ai/ha): 80
- Plant response rating: Arrowleaf Sida ([3]; Preemergence, 62 g ai/ha): 0
- Plant response rating: Arrowleaf Sida ([3]; Preemergence, 125 g ai/ha): 0
- Plant response rating: Arrowleaf Sida ([3]; Preemergence, 250 g ai/ha): 5
- Plant response rating: Foxtail, Giant ([4]; 62 g ai/ha): 75
- Plant response rating: Foxtail, Giant ([4]; 125 g ai/ha): 90
- Plant response rating: Foxtail, Giant ([4]; 250 g ai/ha): 100
- Plant response rating: Soybean ([5]; Postemergence, 62 g ai/ha): 35
- Plant response rating: Soybean ([5]; Postemergence, 125 g ai/ha): 50
- Plant response rating: Soybean ([5]; Postemergence, 250 g ai/ha): 85
- Plant response rating: Soybean ([5]; Preemergence, 62 g ai/ha): 0
- Plant response rating: Soybean ([5]; Preemergence, 125 g ai/ha): 20
- Plant response rating: Soybean ([5]; Preemergence, 250 g ai/ha): 50
- Plant response rating: Velvetleaf ([6]; 62 g ai/ha): 0
- Plant response rating: Velvetleaf ([6]; 125 g ai/ha): 0
- Plant response rating: Velvetleaf ([6]; 250 g ai/ha): 50
- Plant response rating: Kochia ([7]; 62 g ai/ha): 98
- Plant response rating: Kochia ([7]; 125 g ai/ha): 98
- Plant response rating: Kochia ([7]; 250 g ai/ha): 98
- Plant response rating: Crabgrass, Brazil ([8]; Postemergence, 62 g ai/ha): 20
- Plant response rating: Crabgrass, Brazil ([8]; Postemergence, 125 g ai/ha): 30
- Plant response rating: Crabgrass, Brazil ([8]; Postemergence, 250 g ai/ha): 50
- Plant response rating: Crabgrass, Brazil ([8]; Preemergence, 62 g ai/ha): 100
- Plant response rating: Crabgrass, Brazil ([8]; Preemergence, 125 g ai/ha): 100
- Plant response rating: Crabgrass, Brazil ([8]; Preemergence, 250 g ai/ha): 100
- Plant response rating: Sandbur ([9]; Postemergence, 62 g ai/ha): 30
- Plant response rating: Sandbur ([9]; Postemergence, 125 g ai/ha): 35
- Plant response rating: Sandbur ([9]; Postemergence, 250 g ai/ha): 50
- Plant response rating: Sandbur ([9]; Preemergence, 62 g ai/ha): 40
- Plant response rating: Sandbur ([9]; Preemergence, 125 g ai/ha): 65
- Plant response rating: Sandbur ([9]; Preemergence, 250 g ai/ha): 80
- Plant response rating: Pigweed, Palmer ([10]; Postemergence, 62 g ai/ha): 70
- Plant response rating: Pigweed, Palmer ([10]; Postemergence, 125 g ai/ha): 75
- Plant response rating: Pigweed, Palmer ([10]; Postemergence, 250 g ai/ha): 95
- Plant response rating: Pigweed, Palmer ([10]; Preemergence, 62 g ai/ha): 98
- Plant response rating: Pigweed, Palmer ([10]; Preemergence, 125 g ai/ha): 98
- Plant response rating: Pigweed, Palmer ([10]; Preemergence, 250 g ai/ha): 98
- Plant response rating: Morningglory ([11]; 62 g ai/ha): 25
- Plant response rating: Morningglory ([11]; 125 g ai/ha): 65
- Plant response rating: Morningglory ([11]; 250 g ai/ha): 80
- Plant response rating: Dayflower, VA ([12]; Postemergence, 62 g ai/ha): 20
- Plant response rating: Dayflower, VA ([12]; Postemergence, 125 g ai/ha): 60
- Plant response rating: Dayflower, VA ([12]; Postemergence, 250 g ai/ha): 70
- Plant response rating: Dayflower, VA ([12]; Preemergence, 62 g ai/ha): 5
- Plant response rating: Dayflower, VA ([12]; Preemergence, 125 g ai/ha): 20
- Plant response rating: Dayflower, VA ([12]; Preemergence, 250 g ai/ha): 65
- Plant response rating: Ryegrass, Italian ([13]; Postemergence, 62 g ai/ha): 20
- Plant response rating: Ryegrass, Italian ([13]; Postemergence, 125 g ai/ha): 20
- Plant response rating: Ryegrass, Italian ([13]; Postemergence, 250 g ai/ha): 40
- Plant response rating: Ryegrass, Italian ([13]; Preemergence, 62 g ai/ha): 20
- Plant response rating: Ryegrass, Italian ([13]; Preemergence, 125 g ai/ha): 20
- Plant response rating: Ryegrass, Italian ([13]; Preemergence, 250 g ai/ha): 50
- Plant response rating: Beggarticks ([14]; Postemergence, 62 g ai/ha): 30
- Plant response rating: Beggarticks ([14]; Postemergence, 125 g ai/ha): 50
- Plant response rating: Beggarticks ([14]; Postemergence, 250 g ai/ha): 50
- Plant response rating: Beggarticks ([14]; Preemergence, 62 g ai/ha): 0
- Plant response rating: Beggarticks ([14]; Preemergence, 125 g ai/ha): 0
- Plant response rating: Beggarticks ([14]; Preemergence, 250 g ai/ha): 20
- Plant response rating: Panicum, Fall ([15]; Postemergence, 62 g ai/ha): 30
- Plant response rating: Panicum, Fall ([15]; Postemergence, 125 g ai/ha): 40
- Plant response rating: Panicum, Fall ([15]; Postemergence, 250 g ai/ha): 50
- Plant response rating: Panicum, Fall ([15]; Preemergence, 62 g ai/ha): 50
- Plant response rating: Panicum, Fall ([15]; Preemergence, 125 g ai/ha): 90
- Plant response rating: Panicum, Fall ([15]; Preemergence, 250 g ai/ha): 100

Reference: patent publication US10202361B2, “Pyridazinones as herbicides” (E I DU PONT DE NEMOURS AND COMPANY, priority 2014, dated 2019)
